The values below are quoted from earlier work in patent US10105405B2, “Compositions and methods for enhancing brain function using acetyl-L-carnitine, huperzine A and ginkgo biloba” (priority 2006, dated 2018).

For the series, the system named is aged subjects, patients with benign senescent forgetfulness, Alzheimer's disease (AD) and vascular dementia (VD).

On to `C/C=C1\[C@H]2C=C(C)C[C@]1(N)c1ccc(=O)[nH]c1C2` [Huperzine A], for which the memory deficits entry (clinical trials in China) is “significantly relieves memory deficits”. Moreover, under “compared with other AChEIs in use”, the “peripheral cholinergic side effects” value is on record as “minimal peripheral cholinergic side effects”.
